From PubChem BioAssay (NCI)
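These data come from cells grown in 96-well plates and exposed to compound for 48 hours at five concentrations. The concentration for 50% growth inhibition is given as GI50. The concentration for full growth arrest is given as TGI.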

Legend:
Test in all cases: NCI-60 cell line screen, 48 h
[1] = test system: CAKI-1 renal
[2] = test system: HCT-116 colon
[3] = test system: HOP-62 NSCLC
[4] = test system: MCF7 breast
[5] = test system: NCI-H226 lung
[6] = test system: NCI-H460 lung
[7] = test system: RPMI-8226 leukemia
[8] = test system: SF-295 CNS
[9] = test system: SK-MEL-2 melanoma
[10] = test system: UACC-257 melanoma

SMILES	TGI [1]	TGI [2]	TGI [3]	TGI [4]	TGI [5]	TGI [6]	TGI [7]	TGI [8]	TGI [9]	TGI [10]	GI50 [1]	GI50 [2]	GI50 [3]	GI50 [4]	GI50 [5]	GI50 [6]	GI50 [7]	GI50 [8]	GI50 [9]	GI50 [10]
CCN1CCN(c2nc3ccccc3nc2C(=O)c2ccc(OC)c(OC)c2)CC1	> 100 µM	19.7 µM	> 100 µM	45.5 µM	> 100 µM	50.2 µM	35.8 µM	30 µM	> 100 µM	46.4 µM	–	–	–	–	–	–	–	–	–	–
CC1C(=O)c2cc3c(cc2CCN(C)Cc2c1ccc1c2OCO1)OCO3 (stereo not drawn)	> 75 µg/mL	> 75 µg/mL	> 75 µg/mL	> 75 µg/mL	> 75 µg/mL	> 75 µg/mL	> 75 µg/mL	> 75 µg/mL	> 75 µg/mL	> 75 µg/mL	> 75 µg/mL	23.4 µg/mL	> 75 µg/mL	48.5 µg/mL	> 75 µg/mL	40.3 µg/mL	34.6 µg/mL	> 75 µg/mL	> 75 µg/mL	36.1 µg/mL
O=C1/C(=C/c2[nH]ncc2-c2ccc(Cl)cc2)C(=O)N(c2ccccc2)C1c1ccccc1 (stereo not drawn)	31.1 µM	25 µM	63.2 µM	> 100 µM	67.3 µM	> 100 µM	32.2 µM	50.7 µM	35.2 µM	64.7 µM	–	–	–	–	–	–	–	–	–	–
Clc1ccc(Nc2nc(Nc3ccccc3)nc(Nc3ccc(-c4cc(-c5ccc(Cl)cc5)on4)cc3)n2)cc1	69.2 µM	26.5 µM	> 100 µM	> 100 µM	> 100 µM	> 100 µM	> 100 µM	77.6 µM	> 100 µM	> 100 µM	15.3 µM	7.68 µM	18.4 µM	12.2 µM	38.8 µM	17.9 µM	18.7 µM	12.6 µM	24.1 µM	29.8 µM
COc1cccc(/C=N/[N-]C(N)=O)c1[O-].[Ni+2].[OH3+]	2.19 µM	0.27 µM	2.52 µM	–	2.11 µM	1.65 µM	4.13 µM	2.36 µM	1.46 µM	1.52 µM	–	–	–	–	–	–	–	–	–	–
CN(C)C(=O)OC1=CC2CCC(C1)N2C (stereo not drawn)	> 100 µM	> 100 µM	> 100 µM	> 100 µM	> 100 µM	> 100 µM	> 100 µM	> 100 µM	> 100 µM	> 100 µM	–	–	–	–	–	–	–	–	–	–
COc1cc(C2c3cc4c(cc3[C@@H](Nc3ccc(Oc5ccccc5)cc3)C3COC(=O)[C@H]23)OCO4)cc(OC)c1O (stereo partly drawn)	6.76 µM	> 100 µM	4.15 µM	> 37.1 µM	7.9 µM	12.2 µM	5.86 µM	> 100 µM	> 100 µM	20.1 µM	–	–	–	–	–	–	–	–	–	–
CC1=C[C@@H](C)C[C@]2(C)CC[C@H](O2)[C@]23CC[C@](CO)(C[C@H](O2)[C@@H]2O[C@@](C)(CC2=O)[C@@H](O)[C@H]2CC[C@@]4(CCC[C@@H](O4)[C@H](C)C(=O)O[C@H]4C[C@H]([C@]5(O)OCC[C@H](C)[C@@H]5O)O[C@H]4C=C1)O2)O3	0.107 µM	> 10 µM	0.041 µM	> 10 µM	–	> 10 µM	> 10 µM	> 10 µM	> 2.45 µM	–	–	–	–	–	–	–	–	–	–	–
O=C(CC(c1ccccc1)C1C(=O)NC(=S)NC1=O)c1ccc([N+](=O)[O-])cc1 (stereo not drawn)	59.4 µM	> 100 µM	> 100 µM	37.5 µM	> 100 µM	> 100 µM	> 100 µM	> 100 µM	> 100 µM	> 100 µM	–	–	–	–	–	–	–	–	–	–
O/C(=C\c1nc2ccccc2nc1/C=C(\O)c1ccc(F)cc1)c1ccc(F)cc1	> 100 µM	> 100 µM	> 100 µM	> 100 µM	> 100 µM	> 100 µM	> 100 µM	–	> 100 µM	> 100 µM	–	–	–	–	–	–	–	–	–	–
CC(C)CC1c2[nH]c3ccccc3c2C[C@H]2C(=O)NC(CCCCNC(=O)OC(C)(C)C)C(=O)N12 (stereo partly drawn)	> 100 µM	> 100 µM	> 100 µM	> 100 µM	> 100 µM	–	58.5 µM	40.9 µM	46.8 µM	> 100 µM	–	–	–	–	–	–	–	–	–	–
Cc1oc(N)c(S(=O)(=O)c2cc3ccccc3n(O)c2=N)c1C	> 100 µM	–	> 100 µM	> 100 µM	> 100 µM	> 100 µM	> 100 µM	> 100 µM	> 100 µM	> 100 µM	–	–	–	–	–	–	–	–	–	–
O=C(Nc1ccc(-n2ccc3c(NC(=O)c4ccccc4)nccc32)cc1)Nc1cccc(C(F)(F)F)c1	37.4 µM	10.1 µM	19.1 µM	24.8 µM	29.8 µM	13.4 µM	4.81 µM	18.8 µM	30.3 µM	26 µM	10.8 µM	2.91 µM	5.65 µM	6.61 µM	14.3 µM	2.74 µM	1.64 µM	3.75 µM	15 µM	11.2 µM
N=c1ccc2nc(N)nn(O)c-2c1	> 100 µM	> 100 µM	> 100 µM	> 100 µM	> 100 µM	> 100 µM	> 100 µM	–	> 100 µM	> 100 µM	–	–	–	–	–	–	–	–	–	–
CC1(C(=O)O)C[C@](C)(C(=O)OCc2ccccc2)C[C@](C)(C(=O)OCc2ccccc2)C1 (stereo partly drawn)	71.2 µM	57.9 µM	> 100 µM	> 100 µM	> 100 µM	57.5 µM	72.6 µM	61.9 µM	39.3 µM	> 100 µM	–	–	–	–	–	–	–	–	–	–
